In PMC9871744 (Cellular and Molecular Gastroenterology and Hepatology, 2022):
“And” between values parts separate entries of the source, which are not always exact repeats. Identical values can stand only once.

What was measured:
[1] = tested on: S typhimurium tester strains TA98, TA100, TA1535, and TA1537 and E coli tester strain WP2uvrA(pKM101); conditions: all doses with and without S9
[2] = biological target: T1, human estrogen receptor alpha (hERα) (Homo sapiens, UniProt P03372); test: Estrogen receptor transcriptional activation and inhibition assays; type: cell-based
T1 sequence (P03372 1-595): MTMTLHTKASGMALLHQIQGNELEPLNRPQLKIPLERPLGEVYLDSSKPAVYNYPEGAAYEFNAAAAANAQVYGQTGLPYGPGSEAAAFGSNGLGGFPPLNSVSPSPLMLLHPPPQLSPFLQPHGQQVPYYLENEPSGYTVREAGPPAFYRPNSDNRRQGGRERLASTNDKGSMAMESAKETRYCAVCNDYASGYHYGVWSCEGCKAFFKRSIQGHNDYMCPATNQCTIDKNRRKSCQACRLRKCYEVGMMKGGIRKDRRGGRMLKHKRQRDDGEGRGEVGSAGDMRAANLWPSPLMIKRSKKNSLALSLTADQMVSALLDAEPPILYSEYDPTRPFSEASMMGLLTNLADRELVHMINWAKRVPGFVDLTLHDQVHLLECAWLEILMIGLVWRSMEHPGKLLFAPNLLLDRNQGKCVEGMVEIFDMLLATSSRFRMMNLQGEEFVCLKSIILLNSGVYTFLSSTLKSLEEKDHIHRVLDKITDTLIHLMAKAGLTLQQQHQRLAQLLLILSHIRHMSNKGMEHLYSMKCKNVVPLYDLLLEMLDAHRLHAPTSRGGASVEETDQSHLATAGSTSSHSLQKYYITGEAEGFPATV

mouse fungiform TBC = test: Ca2+ signaling in mouse fungiform TBC; type: cell-based; conditions: LA at 20 μmol/L
Hela-9903 cells = test: Cytotoxicity in the estrogen receptor reporter cells; type: cell-based
female Wistar rats = test: Toxicity / median lethal dose test, OECD guidelines 425; type: in vivo
MDA-kb2 cells = test: Cytotoxicity in the androgen receptor reporter cells; type: cell-based
[3] = Pharmacokinetics and detection in blood by LC-MS; type: in vivo, mice
HepG2 cells [4] = test: Micronucleus analysis
human fungiform TBC = test: Ca2+ signaling in human fungiform TBC; type: cell-based
C57BL/6J male mice = test: Diet-induced obesity; type: in vivo
HepG2 cells [5] = test: Cytotoxicity evaluation
[6] = tested on: human androgen receptor (hAR); test: Androgen receptor transcriptional activation and inhibition assays; type: cell-based
C57Bl/6 male mice = test: Two-bottle preference and licking tests; type: in vivo; conditions: 50 μmol/L in 0.3% xanthan gum, 12 hours
[7] = tested on: chorda tympani (CT) nerve; test: Chorda tympani; type: in vivo; conditions: lingual application in mice; 1, 2, and 4 mmol/L; normalized to NH4Cl 100 mmol/L
[8] = rats, single oral 2000 mg/kg, means ± SEM (n = 5)
[9] = bicompartmental model (Monolix), mice i.v.
[10] = extended treatment in the absence of S9 mix, 0.0065 mmol/L
[11] = extended treatment in the absence of S9 mix, 0.010 mmol/L
[12] = extended treatment in the absence of S9 mix, 0.020 mmol/L
[13] = extended treatment in the absence of S9 mix, 2.5 mmol/L (Table 14)
[14] = extended treatment in the absence of S9 mix, 5 mmol/L (Table 14)
[15] = extended treatment in the absence of S9 mix, 10 mmol/L (Table 14)
[16] = short treatment in the absence of S9 mix, 0.025 mmol/L
[17] = short treatment in the absence of S9 mix, 0.05 mmol/L
[18] = short treatment in the absence of S9 mix, 0.10 mmol/L
[19] = short treatment in the presence of S9 mix, 0.025 mmol/L
[20] = short treatment in the presence of S9 mix, 0.05 mmol/L
[21] = short treatment in the presence of S9 mix, 0.10 mmol/L
[22] = extended treatment in the absence of S9 mix, 0.030 mmol/L
[23] = extended treatment in the absence of S9 mix, 0.040 mmol/L
[24] = short treatment in absence of S9 mix, 0.025 mmol/L
[25] = short treatment in absence of S9 mix, 0.050 mmol/L
[26] = short treatment in absence of S9 mix, 0.100 mmol/L
[27] = short treatment in absence of S9 mix, 0.25 mmol/L
[28] = short treatment in the presence of S9 mix, 0.050 mmol/L
[29] = short treatment in the presence of S9 mix, 0.100 mmol/L
[30] = short treatment in the presence of S9 mix, 0.25 mmol/L

CCCCC/C=C\C/C=C\CCCCCCCCP(=O)(OCC)OCC [NKS-3, diethyl (9Z,12Z)-octadeca-9,12-dien-1-ylphosphonate]
toxicity in the tester strains [1]: No toxicity
estrogenic or antiestrogenic potential (conclusion) [2]: did not exert an estrogenic or antiestrogenic potential
Ca2+ signaling compared with a dietary long-chain fatty acid (mouse fungiform TBC): higher
cytotoxic concentrations (Hela-9903 cells; Hela-9903 cells): ≥ 10 µmol/L
highest non-cytotoxic concentration (Hela-9903 cells; estrogen receptor assays): 5 µmol/L
weight of kidneys (female Wistar rats; [8]): 1.82 ± 0.193 g
weight of liver (female Wistar rats; [8]): 8.12 ± 0.188 g
weight of spleen (female Wistar rats; [8]): 0.96 ± 0.12 g
toxic effect on liver enzymes and blood lipid parameters (female Wistar rats; rats, single oral limit dose 2000 mg/kg body weight, 2 weeks): No toxic effect
evidence of toxicity, preliminary study (female Wistar rats; single animal, oral dosages of 5000 mg/kg body weight): no evidence of toxicity
cytotoxic concentrations (MDA-kb2 cells; MDA-kb2 cells): ≥ 10 µmol/L
highest non-cytotoxic concentration (MDA-kb2 cells; androgen receptor assays): 5 µmol/L
Intercompartmental clearance, population pharmacokinetic estimation mean [3, 9]: 0.739 L/h
Proportional residual error, population pharmacokinetic model [3, 9]: 1.89%
Volume of central compartment, population pharmacokinetic estimation mean [3, 9]: 0.0634 L
Volume of peripheral compartment, population pharmacokinetic estimation mean [3, 9]: 2.24 L
detection in blood circulation after intravenous injections (LC-MS) ([3]; mice): could be detected
AUClast as share of the total exposure ([3]; mice, intravenous 10 mg/kg): about 80%
AUClast ([3]; mice, intravenous 10 mg/kg body weight, NCA (AUC0–6 h), 10 mg/kg): 59.94 ± 12.09 mg/kg/Lxh
Tmax ([3]; mouse, plasma, iv, 10 mg/kg): 5 min
Vd ([3]; mouse, plasma, iv, 10 mg/kg): 1.23 ± 0.279 L/kg
clearance ([3]; mouse, plasma, iv, 10 mg/kg): 2.82 mL/min/kg and 3.37 mL/min
half-life ([3]; mouse, plasma, iv, 10 mg/kg): 4 h
AUC(0-t) ([3]; mouse, plasma, iv, 10 mg/kg, AUClast, mice, intravenous 10 mg/kg body weight, NCA (AUC0–6 h)): ~60000 ng·h/mL
Cmax ([3]; mouse, plasma, iv, 10 mg/kg, mice, dose of 10 mg/kg body weight): ~48000 ng/mL
Cmax ([3]; mouse, plasma, iv, 10 mg/kg, mice, intravenous 10 mg/kg body weight, NCA, means ± SEM, five mice): 46700 ± 15300 ng/mL
MNBN cells frequency (%) (HepG2 cells [4]; [10]): 0.8% and 0.6%
Mean frequency (%) of MNBN cells (HepG2 cells [4]; [10]): 0.70%
MNBN cells frequency (%) (HepG2 cells [4]; [11]): 0.9% and 0.8%
Mean frequency (%) of MNBN cells (HepG2 cells [4]; [11]): 0.85%
MNBN cells frequency (%) (HepG2 cells [4]; [12]): 0.9% and 0.6%
Mean frequency (%) of MNBN cells (HepG2 cells [4]; [12]): 0.75%
MNBN cells frequency (%) (HepG2 cells [4]; [13]): 0.9% and 0.7%
Mean frequency (%) of MNBN cells (HepG2 cells [4]; [13]): 0.80%
MNBN cells frequency (%) (HepG2 cells [4]; [14]): 0.9% and 0.8%
Mean frequency (%) of MNBN cells (HepG2 cells [4]; [14]): 0.85%
MNBN cells frequency (%) (HepG2 cells [4]; [15]): 1.0% and 0.9%
Mean frequency (%) of MNBN cells (HepG2 cells [4]; [15]): 0.95%
MNBN cells frequency (%) (HepG2 cells [4]; [16]): 0.6% and 0.5%
Mean frequency (%) of MNBN cells (HepG2 cells [4]; [16]): 0.55%
MNBN cells frequency (%) (HepG2 cells [4]; [17]): 0.7%
Mean frequency (%) of MNBN cells (HepG2 cells [4]; [17]): 0.70%
MNBN cells frequency (%) (HepG2 cells [4]; [18]): 0.7% and 0.6%
Mean frequency (%) of MNBN cells (HepG2 cells [4]; [18]): 0.65%
MNBN cells frequency (%) (HepG2 cells [4]; [19]): 0.7%
Mean frequency (%) of MNBN cells (HepG2 cells [4]; [19]): 0.70%
MNBN cells frequency (%) (HepG2 cells [4]; [20]): 0.6% and 0.8%
Mean frequency (%) of MNBN cells (HepG2 cells [4]; [20]): 0.70%
MNBN cells frequency (%) (HepG2 cells [4]; [21]): 0.6% and 0.4%
Mean frequency (%) of MNBN cells (HepG2 cells [4]; [21]): 0.50%
Ca2+ signaling compared with a dietary long-chain fatty acid (human fungiform TBC): higher
increase in intracellular free Ca2+ concentrations, [Ca2+]i (human fungiform TBC; NKS-3 50 μmol/L, NKS-5 25 μmol/L): induced a rapid increase
CD36 (reduced) and GPR120 (high) protein expression in TBC, Western blots (C57BL/6J male mice; HFD animals, FTA intake 16 weeks): reversed this trend
locomotor activity (C57BL/6J male mice; HFD mice): increased
LA-induced decreases in [Ca2+]i in TBC from obese mice (C57BL/6J male mice; HFD mice given FTA 16 weeks): reversed
daily energy expenditure (indirect calorimetry) (C57BL/6J male mice; HFD-fed mice): significantly increased
leptin mRNA expression in adipose tissues (C57BL/6J male mice; HFD-fed mice): failed to significantly decrease
fecal microbiota: bacterial family increased (C57BL/6J male mice; HFD-fed mice, 16S rRNA sequencing, week 26): Marinifilaceae
adipose tissue mRNA encoding leptin, CD36, TNF-α, and IL6 (C57BL/6J male mice; HFD-fed mice, epididymal adipose tissue): down-regulated
crown-like structures of adipocytes (C57BL/6J male mice; obese animals, histology): decreased
release of GLP-1, CCK-1, and PYY into blood circulation (C57BL/6J male mice; obese mice, end of week 26): induced the release
concentrations with evidence of toxicity (HepG2 cells [5]; extended treatment in the absence of S9 mix): ≥ 30 µM
CBPI (HepG2 cells [5]; [10]): 1.64 and 1.74
Mean CBPI (HepG2 cells [5]; [10]): 1.69
CBPI (HepG2 cells [5]; [11]): 1.57 and 1.62
Mean CBPI (HepG2 cells [5]; [11]): 1.59
CBPI (HepG2 cells [5]; [12]): 1.47 and 1.46
Mean CBPI (HepG2 cells [5]; [12]): 1.46
CBPI (HepG2 cells [5]; [22]): 1.25
Mean CBPI (HepG2 cells [5]; [22]): 1.25
CBPI (HepG2 cells [5]; [23]): 1.24
Mean CBPI (HepG2 cells [5]; [23]): 1.24
Cytotoxicity (%) (HepG2 cells [5]; extended treatment in the absence of S9 mix, 0.062 mmol/L): Cell death
Cytotoxicity (%) (HepG2 cells [5]; extended treatment in the absence of S9 mix, 0.125 mmol/L): Cell death
CBPI (HepG2 cells [5]; [24]): 1.83 and 1.84
Mean CBPI (HepG2 cells [5]; [24]): 1.84
CBPI (HepG2 cells [5]; [25]): 1.64 and 1.66
Mean CBPI (HepG2 cells [5]; [25]): 1.65
CBPI (HepG2 cells [5]; [26]): 1.28 and 1.38
Mean CBPI (HepG2 cells [5]; [26]): 1.33
CBPI (HepG2 cells [5]; [27]): 1.28
Mean CBPI (HepG2 cells [5]; [27]): 1.26
Cytotoxicity (%) (HepG2 cells [5]; short treatment in absence of S9 mix, 0.40 mmol/L): Cell death
Cytotoxicity (%) (HepG2 cells [5]; short treatment in absence of S9 mix, 0.50 mmol/L): Cell death
Cytotoxicity (%) (HepG2 cells [5]; short treatment in absence of S9 mix, 1.00 mmol/L): Cell death
Cytotoxicity (%) (HepG2 cells [5]; short treatment in absence of S9 mix, 5.00 mmol/L): Cell death
Cytotoxicity (%) (HepG2 cells [5]; short treatment in absence of S9 mix, 10.00 mmol/L): Cell death
concentrations with evidence of toxicity (HepG2 cells [5]; short treatment in the absence of S9 mix): ≥ 250 µM
concentrations with evidence of toxicity (HepG2 cells [5]; short treatment in the presence of S9 mix): ≥ 250 µM
CBPI (HepG2 cells [5]; [19]): 1.83 and 1.84
Mean CBPI (HepG2 cells [5]; [19]): 1.83
CBPI (HepG2 cells [5]; [28]): 1.86 and 1.82
Mean CBPI (HepG2 cells [5]; [28]): 1.84
CBPI (HepG2 cells [5]; [29]): 1.63 and 1.66
Mean CBPI (HepG2 cells [5]; [29]): 1.65
CBPI (HepG2 cells [5]; [30]): 1.20 and 1.23
Mean CBPI (HepG2 cells [5]; [30]): 1.22
Cytotoxicity (%) (HepG2 cells [5]; short treatment in the presence of S9 mix, 0.40 mmol/L): Cell death
Cytotoxicity (%) (HepG2 cells [5]; short treatment in the presence of S9 mix, 0.50 mmol/L): Cell death
Cytotoxicity (%) (HepG2 cells [5]; short treatment in the presence of S9 mix, 1.00 mmol/L): Cell death
Cytotoxicity (%) (HepG2 cells [5]; short treatment in the presence of S9 mix, 5.00 mmol/L): Cell death
Cytotoxicity (%) (HepG2 cells [5]; short treatment in the presence of S9 mix, 10.00 mmol/L): Cell death
androgenic or antiandrogenic property (conclusion) [6]: did not possess androgenic or antiandrogenic property
preference in 2-bottle paradigm versus control solution (C57Bl/6 male mice): significant preference
CT nerve responses compared with dietary LCFAs (LA, OA) [7]: higher
